From patent US8815875B2 (Merck Sharp & Dohme Corp., priority 2008, dated 2014)

The compounds below were run against FABP4 (Homo sapiens, UniProt P15090) (assay: TdF (Temperature Dependence Fluorescence) assay, thermal shift, FABP4).
FABP4, sequence (P15090 whole entry, species assumed): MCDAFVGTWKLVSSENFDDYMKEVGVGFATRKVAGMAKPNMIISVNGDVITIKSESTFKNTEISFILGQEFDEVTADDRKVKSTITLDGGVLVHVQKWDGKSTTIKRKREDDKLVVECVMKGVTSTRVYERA
Type: binding
Procedure, shortened: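 Binding measured as ΔTm versus protein alone; binding constants derived by nonlinear fitting with ΔHL set to −7 kcal/mol and ΔCpL to zero.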
`O=C(NCC1(c2cccc(Cl)c2)CCC1)c1c(Cl)cccc1OCc1cc(=O)n2nc(-c3ccccc3)nc2[nH]1` [47-37, 2-chloro-N-((1-(3-chlorophenyl)cyclobutyl)methyl)-6-((7-oxo-2-phenyl-4,7-dihydro-[1,2,4]triazolo[1,5-a]pyrimidin-5-yl)methoxy)benzamide] gave a Kd of no more than 1 nM. For `COc1cccc(C2(CNC(=O)c3c(Cl)cccc3OCc3cc(=O)n4nc(-c5ccccc5)nc4[nH]3)CCC2)c1` [47-38, 2-chloro-N-((1-(3-methoxyphenyl)cyclobutyl)methyl)-6-((7-oxo-2-phenyl-4,7-dihydro-[1,2,4]triazolo[1,5-a]pyrimidin-5-yl)methoxy)benzamide], the Kd was no more than 1 nM. For `Cn1ccc(NC(=O)c2c(Cl)cccc2OCc2cc(=O)n3nc(-c4ccccc4)nc3[nH]2)n1` [47-40], the “FABP4 TdF Kd” value was “B (0.5 ≦ B < 0.001 μM)”. In the case of `CN(CC1CC1)C(=O)c1c(Cl)cccc1OCc1cc(=O)n2nc(-c3ccccc3)nc2[nH]1` [47-46], the Kd is reported as greater than 500 nM. With `CC1(NC(=O)c2c(Cl)cccc2OCc2cc(=O)n3nc(-c4ccccc4)nc3[nH]2)COC1` [47-47] the “FABP4 TdF Kd” value was “B (0.5 ≦ B < 0.001 μM)”. For `COc1ccccc1C1(CNC(=O)c2c(Cl)cccc2OCc2cc(=O)n3nc(-c4ccccc4)nc3[nH]2)CC1` [47-48], the “FABP4 TdF Kd” value was “B (0.5 ≦ B < 0.001 μM)”. For `Nc1cc(C2CC2)n(C(=O)c2c(Cl)cccc2OCc2cc(=O)n3nc(-c4ccccc4)nc3[nH]2)n1` [47-49], the “FABP4 TdF Kd” value was “B (0.5 ≦ B < 0.001 μM)”. For `Nc1cc(C2CC2)nn1C(=O)c1c(Cl)cccc1OCc1cc(=O)n2nc(-c3ccccc3)nc2[nH]1` [47-50], the Kd was no more than 1 nM. Work on `Cc1cc(N)n(C(=O)c2c(Cl)cccc2OCc2cc(=O)n3nc(-c4ccccc4)nc3[nH]2)n1` [47-51] yielded a Kd of no more than 1 nM. For `Cc1cc(N)nn1C(=O)c1c(Cl)cccc1OCc1cc(=O)n2nc(-c3ccccc3)nc2[nH]1` [47-52], the “FABP4 TdF Kd” value was “B (0.5 ≦ B < 0.001 μM)”. `O=C(O)c1ccccc1OCc1cc(=O)n2nc(-c3ccccc3)nc2[nH]1` [47-53] showed a Kd greater than 500 nM. In the case of `Cn1nccc1NC(=O)c1ccccc1OCc1cc(=O)n2nc(-c3ccccc3)nc2[nH]1` [47-54], the “FABP4 TdF Kd” value is reported as “B (0.5 ≦ B < 0.001 μM)”. In the case of `O=C(NCC1CC1)c1ccccc1OCc1cc(=O)n2nc(-c3ccccc3)nc2[nH]1` [47-55], the “FABP4 TdF Kd” value is reported as “B (0.5 ≦ B < 0.001 μM)”. `O=C(NCC1CCC1)c1ccccc1OCc1cc(=O)n2nc(-c3ccccc3)nc2[nH]1` [47-56] was tested, and the “FABP4 TdF Kd” value was “B (0.5 ≦ B < 0.001 μM)”. Compound `Cn1ccc(NC(=O)c2ccccc2OCc2cc(=O)n3nc(-c4ccccc4)nc3[nH]2)n1` [47-57] has a Kd greater than 500 nM. With `O=C(NCC1(CO)CCC1)c1ccccc1OCc1cc(=O)n2nc(-c3ccccc3)nc2[nH]1` [47-58] the “FABP4 TdF Kd” value was “B (0.5 ≦ B < 0.001 μM)”. For `O=C(NCC1(CO)CCCC1)c1ccccc1OCc1cc(=O)n2nc(-c3ccccc3)nc2[nH]1` [47-59], the “FABP4 TdF Kd” value was “B (0.5 ≦ B < 0.001 μM)”. For `O=C(NCC1(c2ccccc2Cl)CC1)c1ccccc1OCc1cc(=O)n2nc(-c3ccccc3)nc2[nH]1` [47-60], the “FABP4 TdF Kd” value was “B (0.5 ≦ B < 0.001 μM)”. For `O=C(NCCC1CC1)c1ccccc1OCc1cc(=O)n2nc(-c3ccccc3)nc2[nH]1` [47-61], the “FABP4 TdF Kd” value was “B (0.5 ≦ B < 0.001 μM)”. `CN(C(=O)c1ccccc1OCc1cc(=O)n2nc(-c3ccccc3)nc2[nH]1)C1CCCCC1` [47-62] was tested, and the “FABP4 TdF Kd” value was “B (0.5 ≦ B < 0.001 μM)”. With `O=C(NC1CCCCC1)c1ccccc1OCc1cc(=O)n2nc(-c3ccccc3)nc2[nH]1` [47-63] the “FABP4 TdF Kd” value was “B (0.5 ≦ B < 0.001 μM)”. `COCC1(CNC(=O)c2ccccc2OCc2cc(=O)n3nc(-c4ccccc4)nc3[nH]2)CC1` [47-64] was tested, and the “FABP4 TdF Kd” value was “B (0.5 ≦ B < 0.001 μM)”. For `O=C(NCC1(CO)CC1)c1ccccc1OCc1cc(=O)n2nc(-c3ccccc3)nc2[nH]1` [47-65], the “FABP4 TdF Kd” value was “B (0.5 ≦ B < 0.001 μM)”. `O=C(O)C1(OCc2cc(=O)n3nc(-c4ccccc4)nc3[nH]2)CCCCC1` [48-2, 1-((7-oxo-2-phenyl-4,7-dihydro-[1,2,4]triazolo[1,5-a]pyrimidin-5-yl)methoxy)cyclohexanecarboxylic acid] was tested, and the Kd was greater than 500 nM. `O=C(N1CCS(=O)(=O)CC1)C1(OCc2cc(=O)n3nc(-c4ccccc4)nc3[nH]2)CCCCC1` [48-4, 4-[[1-[(4,7-dihydro-7-oxo-2-phenyl[1,2,4]triazolo[1,5-a]pyrimidin-5-yl)methoxy]cyclohexyl]carbonyl]thiomorpholine, 1,1-dioxide] was tested, and the Kd was greater than 500 nM. In the case of `COC[C@@H]1CCCN1C(=O)C1(OCc2cc(=O)n3nc(-c4ccccc4)nc3[nH]2)CCCCC1` [48-5, (S)-5-((1-(2-(methoxymethyl)pyrrolidine-1-carbonyl)cyclohexyloxy)methyl)-2-phenyl-[1,2,4]triazolo[1,5-a]pyrimidin-7(4H)-one], the Kd is reported as greater than 500 nM. `COC[C@H]1CCCN1C(=O)C1(OCc2cc(=O)n3nc(-c4ccccc4)nc3[nH]2)CCCCC1` [48-6, (R)-5-((1-(2-(methoxymethyl)pyrrolidine-1-carbonyl)cyclohexyloxy)methyl)-2-phenyl-[1,2,4]triazolo[1,5-a]pyrimidin-7(4H)-one] was tested, and the “FABP4 TdF Kd” value was “B (0.5 ≦ B < 0.001 μM)”. For `O=C(N1C[C@@H]2C[C@@H]2[C@H]1CO)C1(OCc2cc(=O)n3nc(-c4ccccc4)nc3[nH]2)CCCCC1` [48-7, 5-((1-((1S,2S,5R)-2-(hydroxymethyl)-3-azabicyclo[3.1.0]hexane-3-carbonyl)cyclohexyloxy)methyl)-2-phenyl-[1,2,4]triazolo[1,5-a]pyrimidin-7(4H)-one], the “FABP4 TdF Kd” value was “B (0.5 ≦ B < 0.001 μM)”. With `O=C(NC1(c2ccccc2Cl)CC1)C1(OCc2cc(=O)n3nc(-c4ccccc4)nc3[nH]2)CCCCC1` [48-8] the Kd was no more than 1 nM. `O=C(NC1(c2cccc(Cl)c2)CC1)C1(OCc2cc(=O)n3nc(-c4ccccc4)nc3[nH]2)CCCCC1` [48-9, N-(1-(3-chlorophenyl)cyclopropyl)-1-((7-oxo-2-phenyl-4,7-dihydro-[1,2,4]triazolo[1,5-a]pyrimidin-5-yl)methoxy)cyclohexanecarboxamide] gave a Kd of no more than 1 nM. `O=C(NC1(c2cccc(Cl)c2F)CC1)C1(OCc2cc(=O)n3nc(-c4ccccc4)nc3[nH]2)CCCCC1` [48-10] was tested, and the Kd was no more than 1 nM. Work on `O=C(NCC1(CO)CCC1)C1(OCc2cc(=O)n3nc(-c4ccccc4)nc3[nH]2)CCCCC1` [48-11] yielded a Kd of no more than 1 nM. `COc1ccccc1C1(CNC(=O)C2(OCc3cc(=O)n4nc(-c5ccccc5)nc4[nH]3)CCCCC2)CC1` [48-12, N-((1-(2-methoxyphenyl)cyclopropyl)methyl)-1-((7-oxo-2-phenyl-4,7-dihydro-[1,2,4]triazolo[1,5-a]pyrimidin-5-yl)methoxy)cyclohexanecarboxamide] was tested, and the Kd was no more than 1 nM. `COc1ccccc1C1(NC(=O)C2(OCc3cc(=O)n4nc(-c5ccccc5)nc4[nH]3)CCCCC2)CC1` [48-13, N-(1-(2-methoxyphenyl)cyclopropyl)-1-((7-oxo-2-phenyl-4,7-dihydro-[1,2,4]triazolo[1,5-a]pyrimidin-5-yl)methoxy)cyclohexanecarboxamide] showed a Kd of no more than 1 nM. In the case of `O=C(NCC1(c2ccccc2Cl)CC1)C1(OCc2cc(=O)n3nc(-c4ccccc4)nc3[nH]2)CCCCC1` [48-14], the “FABP4 TdF Kd” value is reported as “B (0.5 ≦ B < 0.001 μM)”. `O=C(NCC1(CO)CCCC1)C1(OCc2cc(=O)n3nc(-c4ccccc4)nc3[nH]2)CCCCC1` [48-15, N-((1-(hydroxymethyl)cyclopentyl)methyl)-1-((7-oxo-2-phenyl-4,7-dihydro-[1,2,4]triazolo[1,5-a]pyrimidin-5-yl)methoxy)cyclohexanecarboxamide] showed a Kd of no more than 1 nM. With `O=C(NCC1CC1)C1(OCc2cc(=O)n3nc(-c4ccccc4)nc3[nH]2)CCCCC1` [48-16] the “FABP4 TdF Kd” value was “B (0.5 ≦ B < 0.001 μM)”. `O=C(NCCO)C1(OCc2cc(=O)n3nc(-c4ccccc4)nc3[nH]2)CCCCC1` [48-17] was tested, and the “FABP4 TdF Kd” value was “B (0.5 ≦ B < 0.001 μM)”. `O=C(NC1CC1)C1(OCc2cc(=O)n3nc(-c4ccccc4)nc3[nH]2)CCCCC1` [48-18] showed a Kd greater than 500 nM. `O=C(N1CCOCC1)C1(OCc2cc(=O)n3nc(-c4ccccc4)nc3[nH]2)CCCCC1` [48-19] gave a Kd greater than 500 nM. For `O=C(NCC1CCC1)C1(OCc2cc(=O)n3nc(-c4ccccc4)nc3[nH]2)CCCCC1` [48-20], the “FABP4 TdF Kd” value was “B (0.5 ≦ B < 0.001 μM)”. `CC(C)(C)OC(=O)N1CCC(OCc2cc(=O)n3nc(-c4ccccc4)nc3[nH]2)(C(=O)NCC2CC2)CC1` [48-21] was tested, and the Kd was greater than 500 nM. In the case of `CC(C)(C)OC(=O)N1CCC(OCc2cc(=O)n3nc(-c4ccccc4)nc3[nH]2)(C(=O)NCC2CCC2)CC1` [48-22], the Kd is reported as greater than 500 nM. With `CNC(=O)C1(OCc2cc(=O)n3nc(-c4ccccc4)nc3[nH]2)CCCCC1` [48-23] the Kd was greater than 500 nM. `COCCNC(=O)C1(OCc2cc(=O)n3nc(-c4ccccc4)nc3[nH]2)CCCCC1` [48-24] was tested, and the “FABP4 TdF Kd” value was “B (0.5 ≦ B < 0.001 μM)”. For `CC1(C)CN(C(=O)C2(OCc3cc(=O)n4nc(-c5ccccc5)nc4[nH]3)CCCCC2)CCO1` [48-25], the “FABP4 TdF Kd” value was “B (0.5 ≦ B < 0.001 μM)”. `O=C(NCCC1CC1)C1(OCc2cc(=O)n3nc(-c4ccccc4)nc3[nH]2)CCCCC1` [48-26] was tested, and the “FABP4 TdF Kd” value was “B (0.5 ≦ B < 0.001 μM)”. In the case of `CN(C(=O)C1(OCc2cc(=O)n3nc(-c4ccccc4)nc3[nH]2)CCCCC1)C1CCCCC1` [48-27], the “FABP4 TdF Kd” value is reported as “B (0.5 ≦ B < 0.001 μM)”. In the case of `CN(C(=O)C1(OCc2cc(=O)n3nc(-c4ccccc4)nc3[nH]2)CCCCC1)C1CC1` [48-28], the “FABP4 TdF Kd” value is reported as “B (0.5 ≦ B < 0.001 μM)”. In the case of `CN(CCc1cccc(Cl)c1)C(=O)C1(OCc2cc(=O)n3nc(-c4ccccc4)nc3[nH]2)CCCCC1` [48-29], the “FABP4 TdF Kd” value is reported as “B (0.5 ≦ B < 0.001 μM)”. Work on `CN(C)C(=O)C1(OCc2cc(=O)n3nc(-c4ccccc4)nc3[nH]2)CCCCC1` [48-30] yielded a Kd greater than 500 nM. In the case of `CN(Cc1cccc(Cl)c1)C(=O)C1(OCc2cc(=O)n3nc(-c4ccccc4)nc3[nH]2)CCCCC1` [48-31], the “FABP4 TdF Kd” value is reported as “B (0.5 ≦ B < 0.001 μM)”. In the case of `Cn1nccc1NC(=O)C1(OCc2cc(=O)n3nc(-c4ccccc4)nc3[nH]2)CCCCC1` [48-32], the “FABP4 TdF Kd” value is reported as “B (0.5 ≦ B < 0.001 μM)”. With `Cn1ccc(NC(=O)C2(OCc3cc(=O)n4nc(-c5ccccc5)nc4[nH]3)CCCCC2)n1` [48-33] the “FABP4 TdF Kd” value was “B (0.5 ≦ B < 0.001 μM)”. `O=C(NCC1(c2ccccc2Cl)CCC1)C1(OCc2cc(=O)n3nc(-c4ccccc4)nc3[nH]2)CCCCC1` [48-34] was tested, and the “FABP4 TdF Kd” value was “B (0.5 ≦ B < 0.001 μM)”. With `Cc1cc(NC(=O)C2(OCc3cc(=O)n4nc(-c5ccccc5)nc4[nH]3)CCCCC2)n(C)n1` [48-35] the Kd was greater than 500 nM. In the case of `O=C(NC1(CO)CC1)C1(OCc2cc(=O)n3nc(-c4ccccc4)nc3[nH]2)CCCCC1` [48-36], the “FABP4 TdF Kd” value is reported as “B (0.5 ≦ B < 0.001 μM)”.
